Test results taken from patent US11452703B2, “Methods and compositions for reducing adipocyte numbers” (Peregrine Ophthalmic PTE LTD., priority 2020, dated 2022).

Key:
[1] = Intraocular pressure pre- and 3-week post retrobulbar injection; format: in vivo, Lewis rats (Rattus norvegicus); details: rat, pre-injection vs 3 weeks post-injection
From the text: (§1) Twenty-four male Lewis rats (Rattus norvegicus) at 8-10 weeks of age were used in the study. Their weights at the start of the study ranged from 250-300 g.
(§2) Six rats were assigned to each of four groups at least one day prior to drug dosing using a selection designed to achieve similar group mean body weights. Animals in Groups A-D were weighed prior to injection and weekly thereafter.
(§3) Rats were anesthetized and a 30-gauge needle was used to inject the drugs into the retrobulbar space of the right orbit of each animal. The left orbit served as a contra-lateral control. All rats awoke from anesthesia without complication.
Intraocular pressure (TOP) measurements were taken pre- and 3-week post-injection of each eye of all 24 rats.

[2] = test system: intraconal fat deposit adipocytes; experiment: Short-term (7-day) adipocyte counts in intraconal fat after retrobulbar injection; format: in vivo; details: rat, single retrobulbar injection, 25 μg/eye (DCA 2000 μg/eye), day 7 post-injection
Experimental: Free latanoprost, EggPC-latanoprost, and POPC-latanoprost were each introduced by retrobulbar injection into the orbit of the rat eye to ascertain its effect on intraconal fat deposits. As a positive control, deoxycholic acid (DCA; KYBELLA®) was also injected. DCA has been approved by the United States Food and Drug Administration for reducing fat cells in the chin.
Six rats were injected in a single eye for each of treatment. The contralateral eye of each animal was not injected, thus serving as a negative control.
The number of adipocytes present in the intraconal fat deposit at day 7 post-injection was counted by computer analysis of histopathology images and compared to the number of adipocytes in the contralateral un-injected eye. The results are shown in FIGS. 4A-4F and in Table 2 below.

[3] = test system: PPARγ; experiment: Quantitative real-time PCR of PPARγ mRNA in adipocytes; format: cell-based; details: adipocytes 9 or 15 days post differentiation, vs vehicle control
Experimental: (§4) Adipose-derived mesenchymal stem cells, i.e., pre-adipocytes, were cultured and differentiated into adipocytes following established protocols. Briefly, adipose derived mesenchymal stem cells were obtained from ATCC (PCS500011™, Manassas, Va.) and cultured in Mesenchymal Stem Cell Basal Medium (ATCC® PCS500030™) with Growth Kit (ATCC® PCS500040™) at 37° C. in 5% CO2. To induce differentiation, ADMSC cultures were grown to 70% to 80% confluence and the medium replaced by adipogenic differentiation medium (StemPro® Adipogenesis Differentiation Kit; Gibco Life Technologies™, USA). The medium was changed twice weekly.
(§5) Gene expression in the treated and untreated adipocytes was examined by quantitative real-time PCR analysis. Total RNA from adipocytes was isolated using the RNAzol® RT reagent (Molecular Research Center, Inc., Cincinnati, Ohio, USA) and reverse-transcribed using the QuantiTect reverse transcription kit (Qiagen Inc., Chatsworth, Calif., USA) according to the supplier's instructions. Messenger RNA expression of adipogenesis-promoting genes C/EBPα, PPARγ, and LPL were determined by quantitative analysis of real-time PCR (RT-PCR) using FastStart Universal SYBR Green Master Mix (Roche Applied Science) in a LightCycler® 480 Real-Time PCR System (Roche Applied Science, Germany). […]

[4] = test system: C/EBPα; experiment: Quantitative real-time PCR of C/EBPα mRNA in adipocytes; format: cell-based; details: adipocytes 9 or 15 days post differentiation, vs vehicle control
Experimental: as §4, §5

[5] = test system: inguinal fat pad; experiment: In vivo fat reduction by direct injection into inguinal fat pads; details: mice, single injection 100 μL containing 100 μg latanoprost, 7 days post-injection
Experimental: The ability of liposome-encapsulated latanoprost to reduce fat deposits in vivo was tested by direct injection into inguinal fat pads of mice.
Each of three animals were injected into one inguinal fat pad with 100 μL of vehicle, 100 μL containing 100 μg latanoprost, 100 μL of EggPC-latanoprost containing 100 μg latanoprost, or 100 μL of POPC-latanoprost containing 100 μg latanoprost. Seven days later, the mice were sacrificed and the weights of both the injected inguinal fat pad and the contralateral un-injected fat pad were measured.

[6] = test system: LPL; experiment: Quantitative real-time PCR of LPL mRNA in adipocytes; format: cell-based; details: adipocytes 9 or 15 days post differentiation, vs vehicle control
Experimental: as §4, §5

[7] = test system: intraconal orbital fat adipocytes; experiment: 21-day retrobulbar injection into orbital fat, histology and image analysis; format: in vivo, Lewis rats (Rattus norvegicus); design: Area of Retrobulbar Fat complex, Percentage Increase treated vs naïve control eyes / Mean Density of Adipocytes, Percent Increase treated vs naïve control eyes / Adipocyte Cell Counts, Percentage Decrease treated vs naïve control eyes: concentration or dose not given beside the values; details: rat; for Adipocyte Cell Counts, Treated Eyes Mean ± SEM / Area of Retrobulbar Fat complex, Treated Eyes Mean ± SEM / Mean Density of Adipocytes, Treated Eyes Mean ± SEM: 25 μg/eye (DCA 2000 μg/eye), day 21, n = 6; for Adipocyte Cell Counts, Percentage Decrease treated vs naïve control eyes / Area of Retrobulbar Fat complex, Percentage Increase treated vs naïve control eyes / Mean Density of Adipocytes, Percent Increase treated vs naïve control eyes: day 21
From the text: Free latanoprost, EggPC-latanoprost, POPC-latanoprost, and DCA were each introduced by retrobulbar injection into the orbit of the rat eye to ascertain its effect on intraconal fat deposits over a three-week period.
as §1, §2, §3
On Day 21, 3 weeks after injection, rats were euthanized by cardiac perfusion with 4% paraformaldehyde. After perfusion, each rat was decapitated and the head was placed in a 10% formalin solution for 2 days. Each orbit was carefully exenterated subperiosteally with a scalpel and placed back in 10% formalin solution for 1 day (6 orbits from 3 animals per group) and the remaining orbits were placed back in a 10% formalin solution for 2 weeks. Exenterated orbits were embedded in paraffin and cut into 5 μm sections. Sections centered around the intraconal fat and optic nerve were stained with hematoxylin-eosin for histologic examination by a trained ocular pathologist and a second observer in a blinded fashion.
Sections were examined histologically for optic nerve injury, atrophy of orbital fat, adipocyte density, and cytotoxicity evidenced by, e.g., adipocytolysis, blood vessel injury and repair, neutrophilic inflammation, lysis of locally present neutrophils, hemorrhage, lipid lake formation, and neovascularization.
The intraconal fat of the orbital sections were examined under light microscopy and images scanned for further analysis. The areas of intraconal orbital fat were cropped and the adipocytes counted using ImageJ software (Rasband W.S., US National Institutes of Health, Bethesda, Md.) to determine adipocyte density using a previously described method. See Park et al., 2011, Jpn. J. Ophthalmol. 55:22-27. The density of adipocytes in the intraconal orbital fat area was calculated and compared between groups via a 2-tailed Student t test.
Adipocyte size heterogeneity was analyzed in the cropped images of the intraconal fat light using a maximally stable extremal regions-based segmentation algorithm implemented in MATLAB (Mathworks, Natick, Mass.). A maximally stable extremal region algorithm entitled VL_FEAT was used to find extremal regions with parameters of delta=1, maximum variation=0.2, minimum diversity=0.5. Maximally stable extremal region-determined regions with sizes less than 10 pixels or eccentricity larger than 0.9 was discarded as false positives. The mean segmented adipocyte size for each image was calculated and the groups were compared using Student t test.

SMILES	Intraocular pressure (IOP) in injected eyes [1]	Adipocyte cell count reduction (percent reduction in total adipocyte number in intraconal fat deposit vs contralateral un-injected eye) [2] [%]	mRNA expression of adipogenesis-promoting gene PPARγ [3]	mRNA expression of adipogenesis-promoting gene C/EBPα [4]	weight reduction of injected inguinal fat pad as compared to un-injected contralateral fat pad [5]	mRNA expression of adipogenesis-promoting gene LPL [6]	heterogeneity among adipocytes in the intraconal space as compared to naïve contra-lateral control orbits ([7]; orbital injection, day 21, computer-aided morphological analysis)	Adipocyte Cell Counts, Treated Eyes Mean ± SEM ([7]; retrobulbar injection)	Area of Retrobulbar Fat complex, Treated Eyes Mean ± SEM ([7]; retrobulbar injection) [mm^2]	Mean Density of Adipocytes, Treated Eyes Mean ± SEM ([7]; retrobulbar injection) [cells/mm^3]	Adipocyte Cell Counts, Percentage Decrease treated vs naïve control eyes ([7]; retrobulbar injection) [%]	Area of Retrobulbar Fat complex, Percentage Increase treated vs naïve control eyes ([7]; retrobulbar injection) [%]	Mean Density of Adipocytes, Percent Increase treated vs naïve control eyes ([7]; retrobulbar injection) [%]	change in the area of the retrobulbar fat complex after injection (significance) ([7]; retrobulbar injection, day 21, quantitative image analysis)
CC(C)OC(=O)CCC/C=C\C[C@@H]1[C@@H](CC[C@@H](O)CCc2ccccc2)[C@H](O)C[C@@H]1O [latanoprost]	remained stable	56.52	suppressed expression	suppressed expression	did not result in any weight reduction	suppressed expression	more heterogeneity	108 ± 52	0.131 ± 0.089	8574.68 ± 1456.73	61	283	58	significant increases
C[C@H](CCC(=O)O)[C@H]1CC[C@H]2[C@@H]3CC[C@@H]4C[C@H](O)CC[C@]4(C)[C@H]3C[C@H](O)[C@]12C [DCA, deoxycholic acid]	significant increase	39.04	–	–	–	–	–	179 ± 47	0.167 ± 0.093	7606.21 ± 754.39	37	208	35	–
